These results are taken from patent US10723778B2, “Variants of adrenomedullin and calcitonin gene-related peptide and methods of use” (The Board of Regents of the University of Oklahoma, priority 2015, dated 2020).

Read-outs that look alike come from different tables or passages of the source. Where no end group is shown, it is not given here.

For experiment [1], the target named is T1, RAMP2-CLR ECD (AM1); purified MBP-RAMP2 ECD [L106R]-(GS)5-CLR ECD-H6 fusion protein (Homo sapiens, UniProt O60895+Q16602, L106R).
T1 construct: MBP-hRAMP2.55-140 [L106R]-(Gly-Ser-Ala)3-hCLR.29-144-H6; made in house; host or cells: E. coli
Kind of experiment: Fluorescence polarization (FP) peptide binding competition assay, AM1 receptor ECD complex. As to conditions: for RAMP2-CLR ECD (AM1) KI (nM) / Ki: FP competition, FITC-AM W/W probe 7 nM, fusion protein 110 nM. Here is the method: (§1) Fluorescence polarization peptide binding assay. […] The reactions (50 μL) were incubated for 2 hours at room temperature to reach equilibrium, and the anisotropy was measured in black half-area 96-well plates using a BMG LABTECH's POLARstar® Omega plate reader (Ortenberg, Germany). The reaction buffer was 50 mM HEPES, pH 7.5, 150 mM NaCl, 0.5 mg/ml fatty acid-free BSA, 0.5 mM EDTA, 0.5 mM maltose. Ki values were calculated using nonlinear regression fitting of the competition curves to the exact analytical equations of Roehrl et al. (Biochemistry (2004) 43:16056-66) using GraphPad Prism 5.0 (GraphPad Software, San Diego Calif.).
FIG. 3(A-K) depicts binding of (A) AM-based peptide AM(37-52)NH2, and variant peptide AM(37-52)NH2[S45W, Q50W]; (B) AM-based peptide AM(37-52)NH2, variant peptide AM(37-52)NH2[Q50F], and variant peptide AM(37-52)NH2[Q50W]; (C) variant peptides AM(37-52)NH2[K46L], AM(37-52)NH2[K46M], and AM(37-52)NH2[D39F]; (D) variant peptides AM(37-52)NH2[D39F, K46L, Q50W], AM(37-52)NH2[D39F, K46L, Q50W, Y52F], and AM(37-52)NH2[S45W, K46L, Q50W, Y52F]; (E) variant peptides AM(37-52)NH2[[D39K], AM(37-52)NH2[K46L, Q50W], and AM(37-52)NH2[K46L, Q50W, Y52F]; (F) variant peptides AM(37-52)NH2[S45W, K46M, Q50W, Y52F], and AM(37-52)NH2[S45W, K46W, Q50W, Y52F]; (G) variant peptides AM(37-52)NH2[S45T, K46W, Q50W], AM(37-52)NH2[S45T, K46L, Q50W], and AM(37-52)NH2[S45W, K46L, S48G, Q50W, Y52F]; (H) variant peptide AM(37-52)NH2[S45W, K46L, I47M, Q50W, Y52F]; (I) variant peptides AM(37-52)NH2[S45R, K46W, Q50W], and AM(37-52)NH2[S45R, K46L, Q50W]; (J) variant peptides AM(37-52)NH2[S45R, K46W, S48G, Q50W], AM(37-52)NH2[S45R, K46L, S48G, Q50W], and AM(37-52)NH2[S45R, K46W, I47L, S48G, Q50W]; and (K) variant peptides AM(37-52)NH2[D39W, Q50W], and AM(37-52)NH2[D37V, S45W, K46L, Q50W, Y52F], to the purified AM1 receptor extracellular domain complex. Single representative experiments conducted with duplicate samples are shown. […] The reactions were incubated for 2 hours at room temperature to reach equilibrium, and the anisotropy was measured in black half-area 96-well plates using a BMG LABTECH's POLARstar® Omega plate reader (Ortenberg, Germany). The reaction buffer was 50 mM HEPES, pH 7.5, 150 mM NaCl, 0.5 mg/ml fatty acid-free BSA, 0.5 mM EDTA, 0.5 mM maltose. KI values were calculated using nonlinear regression fitting of the competition curves to the exact analytical equations of Roehrl et al. (Biochemistry (2004) 43:16056-66) using GraphPad Prism 5.0 (GraphPad Software, San Diego Calif.).
as §1, with “Single representative experiments conducted with duplicate samples are shown.” for “Fluorescence polarization peptide binding assay.”, “reactions” for “reactions (50 μL)”, “KI” for “Ki”
A fluorescence polarization/anisotropy (FP) peptide-binding assay was developed using N-terminally FITC-labeled AM(37-52) S45W/Q50W as the probe, hereafter “FITC-AM W/W.” The probe was custom synthesized and HPLC-purified by RS Synthesis. The large size difference between the MBP-RAMP ECD-CLR ECD fusion proteins (˜65 kDa) and the probe (˜2.5 kDa) ensures a significant anisotropy difference between bound and free states of the probe. […] Kd values for the probe at each of the tethered ECD fusion proteins were determined in equilibrium saturation binding experiments (data not shown), and KI values were determined for unlabeled peptides in equilibrium competition experiments (Table 1; FIGS. 2-5).

Experiment [2] has as its target T2, RAMP1-CLR ECD (CGRP); purified MBP-RAMP1 ECD-(GS)5-CLR ECD-H6 fusion protein (Homo sapiens, UniProt O60894+Q16602).
T2 construct: MBP-hRAMP1.24-111-(Gly-Ser)5-hCLR.29-144-H6; made in house; host or cells: E. coli
Kind of experiment: Fluorescence polarization (FP) peptide binding competition assay, CGRP receptor ECD complex. The following applies: for Receptor Selectivity, fold for CGRP: CGRP (RAMP1-CLR ECD) over AM1 (RAMP2-CLR ECD); for Receptor Selectivity (in words): CGRP vs AM1 receptor ECD complexes. The procedure: as §1
(§2) The ability of the indicated peptides to displace a FITC-Ahx-AM(37-52)NH2 [S45W, Q50W] probe (7 nM) from purified MBP-RAMP1 ECD-(GS)5-CLR ECD-H6 fusion protein (15 nM) was assessed by fluorescence polarization (anisotropy). The reactions were incubated for 2 hours at room temperature to reach equilibrium, and the anisotropy was measured in black half-area 96-well plates using a BMG LABTECH's POLARstar® Omega plate reader (Ortenberg, Germany). The reaction buffer was 50 mM HEPES, pH 7.5, 150 mM NaCl, 0.5 mg/ml fatty acid-free BSA, 0.5 mM EDTA, 0.5 mM maltose. KI values were calculated using nonlinear regression fitting of the competition curves to the exact analytical equations of Roehrl et al. (Biochemistry (2004) 43:16056-66) using GraphPad Prism 5.0 (GraphPad Software, San Diego Calif.).
as §2, with “Single representative experiments conducted with duplicate samples are shown. Error bars are S.E.M. The ability” for “The ability”, “displace a FITC-Ahx-AM(37-52)NH2[S45W, Q50W] probe” for “displace a FITC-Ahx-AM(37-52)NH2 [S45W, Q50W] probe”
A fluorescence polarization/anisotropy (FP) peptide-binding assay was developed using N-terminally FITC-labeled AM(37-52) S45W/Q50W as the probe, hereafter “FITC-AM W/W.” The probe was custom synthesized and HPLC-purified by RS Synthesis. The large size difference between the MBP-RAMP ECD-CLR ECD fusion proteins (˜65 kDa) and the probe (˜2.5 kDa) ensures a significant anisotropy difference between bound and free states of the probe. […] Kd values for the probe at each of the tethered ECD fusion proteins were determined in equilibrium saturation binding experiments (data not shown), and KI values were determined for unlabeled peptides in equilibrium competition experiments (Table 1; FIGS. 2-5). The data were analyzed according to exact analytical equations using non-linear regression curve fitting in GraphPad Prism 5.0 (GraphPad Software) via user-defined equations.
(In general: In fluorescence polarisation assays a small probe gives low polarisation when free and higher when bound to something large.)

Where [3] appears, read: FP competition, FITC-AM W/W probe 7 nM, fusion protein 15 nM.
The mark [4] stands for this setting: RAMP1-CLR ECD (CGRP) KI (nM), FP competition, FITC-AM W/W probe 7 nM, fusion protein 15 nM.

Regarding “D39F: AM(37-52)NH2 scaffold variant peptide with D39F substitution (DKFNVAPRSKISPQGY-NH2) [Peptide D39F]”, the “RAMP2-CLR ECD (AM1) KI (nM)” value in experiment [1] was “No binding”. The “RAMP1-CLR ECD (CGRP) KI (nM)” value in experiment [2] (setting [3]) is reported as “No binding”.
For DKDNVAPRSKISPFGY-NH2 [Peptide Q50F], the “Receptor Selectivity, fold for AM1” value in experiment [1] (AM1 (RAMP2-CLR ECD) over CGRP (RAMP1-CLR ECD), FP assay) was 5-fold for AM1. This substance had a Ki in experiment [2] (setting [4]) of 10500 nM.
Take DKDNVAPRSLISPQGY [Peptide K46L]: in experiment [1], the “RAMP2-CLR ECD (AM1) KI (nM)” value is reported as “No binding”. For the same substance, in experiment [2] (setting [3]), the “RAMP1-CLR ECD (CGRP) KI (nM)” value is reported as “No binding”.
As to DKDNVAPRSLISPWGF-NH2 [K46L/Q50W/Y52F], in experiment [2] (FP assay), the “Receptor Selectivity, fold for CGRP” value is 2820-fold for CGRP. In addition, in experiment [2] (setting [4]), the Ki was 31.6 nM.
For DKDNVAPRSLISPWGY-NH2 [K46L/Q50W], in that order: 23-fold for CGRP and 70.8 nM.
As for DKDNVAPRSMISPQGY [Peptide K46M], the “RAMP2-CLR ECD (AM1) KI (nM)” value in experiment [1] was “No binding”. The “RAMP1-CLR ECD (CGRP) KI (nM)” value in experiment [2] (setting [3]) is “No binding”.
Take DKDNVAPRTLISPWGY-NH2 [S45T/K46L/Q50W]: the “Receptor Selectivity, fold for CGRP” value in experiment [2] (FP assay) is listed as 24-fold for CGRP. For the same substance, the Ki in experiment [2] (setting [4]) was found to be 65.6 nM.
For DKDNVAPRTWISPWGY-NH2 [S45T/K46W/Q50W], in that order: 28-fold for CGRP and 439 nM.
DKDNVAPRWKISPWGY-NH2 [S45W/Q50W]: the “Receptor Selectivity (in words)” value in experiment [2] (FP assay) was “Non-selective”. The Ki in experiment [2] (setting [4]) is 44.7 nM.
For “DKDNVAPRWLMSPWGF-NH2 [S45W/K46L/I47M/Q50W/Y52F]”, the “RAMP2-CLR ECD (AM1) KI (nM)” value is given as “No binding” in experiment [1] and “no binding” in experiment [1] (listed as AM(37-52)NH2[S45W, K46L, I47M, Q50W, Y52F]). In addition, the “Receptor Selectivity (in words)” value in experiment [2] (FP assay) is given as “CGRP (very selective)”. Moreover, the Ki in experiment [2] (KI for the CGRP receptor ECD complex, FP assay) is about 0.78 nM; in experiment [2] (setting [4]), 0.78 nM.
“DKDNVAPRWMISPWGF-NH2 [S45W/K46M/Q50W/Y52F]”: the “Receptor Selectivity, fold for CGRP” value in experiment [2] (FP assay) was 977-fold for CGRP. The substance further gave a Ki in experiment [2] (setting [4]) of 7.94 nM.
The matching figures for “DKDNVAPRWWISPWGF-NH2 [S45W/K46W/Q50W/Y52F]”: 692-fold for CGRP and 24 nM.
Regarding “DKFNVAPRSLISPWGF-NH2 [D39F/K46L/Q50W/Y52F]”, the Ki in experiment [1] (mean ± S.E.M, read-out: RAMP2-CLR ECD (AM1) pKI (converted)) was 28200 nM; in experiment [2] (setting [4]), 25 nM. Also, the “Receptor Selectivity, fold for CGRP” value in experiment [2] (FP assay) is listed as 1213-fold for CGRP.
As for DKFNVAPRSLISPWGY-NH2 [D39F/K46L/Q50W], in experiment [2] (FP assay), the “Receptor Selectivity, fold for CGRP” value is reported as 22-fold for CGRP. Further, the Ki in experiment [2] (setting [4]) is 82.2 nM; in experiment [2] (RAMP1-CLR ECD (CGRP) pKI, FP competition, FITC-AM W/W probe 7 nM, fusion protein 15 nM, mean ± S.E.M of at least 3 independent experiments) it was 79.4 nM.
Turning to DKKNVAPRSKISPQGY-NH2 [Peptide D39K], in experiment [2] (FP assay), the “Receptor Selectivity (in words)” value is given as “AM1”. In addition, the “RAMP1-CLR ECD (CGRP) KI (nM)” value in experiment [2] (setting [3]) is “No binding”.
Consider “FVPTDTGPWGF-NH2 [N31D/V32T/S34P/K35W/A36G]”, for which, in experiment [1], the “RAMP2-CLR ECD (AM1) KI (nM)” value is recorded as “No binding”. Besides, the “Receptor Selectivity (in words)” value in experiment [2] (FP assay) is reported as “CGRP”. In experiment [2] (setting [4]), this substance registered a Ki of 6.85 nM.
On to “FVPTDTGPWGY-NH2 [N31D/V32T/S34P/K35W/A36G/F37Y]”, for which the “Receptor Selectivity, fold for CGRP” value in experiment [2] (FP assay) is 821-fold for CGRP. The Ki in experiment [2] (setting [4]) is 17.6 nM.
For the substance “FVPTDTGPWSF-NH2 [N31D/V32T/S34P/K35W/A36S]”, in experiment [2] (FP assay), the “Receptor Selectivity, fold for CGRP” value was ≥2754-fold for CGRP and the “KI for the CGRP receptor ECD complex” value was “well into the pM range”. Besides, in experiment [2] (setting [4]), the Ki is under 1 nM.
As to FVPTDVGPFSF-NH2 [N31D/S34P/K35F/A36S], the Ki in experiment [1] (read-out: RAMP2-CLR ECD (AM1) KI) was over 10000 nM; in experiment [2] (setting [4]) it was 2.95 nM. Moreover, the “Receptor Selectivity (in words)” value in experiment [2] (FP assay) is listed as “CGRP over AM1”.
Take FVPTDVGPWAF-NH2 [N31D/S34P/K35W]: in experiment [1], the “RAMP2-CLR ECD (AM1) KI (nM)” value is on record as “No binding”. In addition, the “Receptor Selectivity (in words)” value in experiment [2] (FP assay) was “CGRP”. Further, in experiment [2] (setting [4]), the Ki is 8.13 nM.
